# Measurements as given in ChEMBL document CHEMBL1155519, “Discovery of N-phenyl-4-(thiazol-5-yl)pyrimidin-2-amine aurora kinase inhibitors” (J Med Chem, 2010).
# Active and inactive are the calls of the source. The rule behind the calls is not given here.
# Tests used:
# A2780 = experiment: Cytotoxicity against human A2780 cells after 96 hrs by MTT assay; assay type: functional, cell-based; details: A2780, 96 h
# MIA PaCa-2 = experiment: Cytotoxicity against human MIAPaCa2 cells after 96 hrs by MTT assay; assay type: functional, cell-based; details: MIA PaCa-2, 96 h
# [1] = Inhibition of CAMK2
# [2] = Inhibition of PKA
# [3] = Inhibition of PKC
# [4] = biological target: Mitogen-activated protein kinase 14 (Homo sapiens, UniProt Q16539); experiment: Inhibition of SAPK2A
# HeLa [5] = experiment: Cytotoxicity against human HeLa cells after 96 hrs by MTT assay; assay type: functional, cell-based
# COLO 205 = experiment: Cytotoxicity against human COLO205 cells after 96 hrs by MTT assay; assay type: functional, cell-based; details: COLO 205, 96 h
# HCT-116 = experiment: Cytotoxicity against human HCT116 cells after 96 hrs by MTT assay; assay type: functional, cell-based; details: HCT-116, 96 h
# MV4-11 = experiment: Cytotoxicity against human MV4-11 cells after 96 hrs by MTT assay; assay type: functional, cell-based; details: MV4-11, 96 h
# HL-60 = experiment: Cytotoxicity against human HL60 cells after 96 hrs by MTT assay; assay type: functional, cell-based; details: HL-60, 96 h
# NCI-H460 [6] = experiment: Cytotoxicity against human NCI-H460 cells after 96 hrs by MTT assay; assay type: functional, cell-based; details: NCI-H460, 96 h
# [7] = Cytotoxicity against human MESSA cells after 96 hrs by MTT assay; assay type: functional, cell-based; details: MES-SA
# U2OS [8] = experiment: Inhibition of Aurora kinase in asynchronous human U2OS cells assessed as reduction of histone H3 serine-10 phosphorylation at 150 nM after 7 hrs immunofluorescence microscopy; assay type: cell-based
# U2OS [9] = experiment: Inhibition of Aurora kinase in nocodazole-synchronized human U2OS cells assessed as reduction of histone H3 serine-10 phosphorylation at 0.07 to 10 uM after 2 hrs immunofluorescence microscopy; assay type: cell-based
# A549 [10] = experiment: Effect on mitotic index in asynchronous human A549 cells assessed as appearance of misaligned chromosomes with shortened spindle fibres at 0.5 uM after 8 hrs […]; assay type: functional, cell-based
# A549 [11] = experiment: Cell cycle arrest in asynchronous human A549 cells assessed as accumulation of cyclin B1-negative tetraploid cells at G1 phase at 0.5 to 2 uM after 24 hrs by FACS analysis; assay type: functional, cell-based
# [12] = Octanol-aqueous buffer partition coefficient, log D at pH 7.4 by shake-flask method; assay type: physicochemical
# [13] = Dissociation constant, pKa by pH-metric titration method; assay type: physicochemical
# [14] = Aqueous solubility by turbidimetric analysis; assay type: physicochemical
# [15] = Apparent permeability across human Caco-2 cell membrane; assay type: ADME, cell-based
# Liver microsomes = experiment: Intrinsic clearance in rat liver microsomes by LC/MS/MS analysis; assay type: ADME, Microsome
# [16] = Apparent volume of distribution with respect to the bioavailability in Wistar rat at 10 mg/kg, po after 24 hrs by LC/MS/MS analysis; assay type: ADME, organism-based; details: in vivo, read-out: Vc/F
# [17] = Oral bioavailability in Wistar rat at 10 mg/kg after 24 hrs by LC/MS/MS analysis; assay type: ADME, organism-based; details: in vivo
# [18] = Oral bioavailability in mouse up to 100 mg/kg; assay type: ADME, organism-based; details: in vivo
# Cytochrome P450 2C9 = Cytochrome P450 2C9 (Homo sapiens, UniProt P11712); experiment: Inhibition of human recombinant CYP2C9 at 5 uM; assay type: ADME; details: recombinant enzyme
# Cytochrome P450 2C19 = Cytochrome P450 2C19 (Homo sapiens, UniProt P33261); experiment: Inhibition of human recombinant CYP2C19 at 5 uM; assay type: ADME; details: recombinant enzyme
# Cytochrome P450 2D6 = Cytochrome P450 2D6 (Homo sapiens, UniProt P10635); experiment: Inhibition of human recombinant CYP2D6 at 5 uM; assay type: ADME; details: recombinant enzyme
# Cytochrome P450 3A4 = Cytochrome P450 3A4 (Homo sapiens, UniProt P08684); experiment: Inhibition of human recombinant CYP3A4 at 5 uM; assay type: ADME; details: recombinant enzyme
# CYP1A2 = experiment: In vitro elimination half life at 5 uM in presence of human recombinant CYP1A2; assay type: ADME; details: read-out: beta t1/2
# Cytochrome P450 1A = Cytochrome P450 1A (Homo sapiens, UniProt P04798+P05177); experiment: Inhibition of CYP1A in human hepatocyte at 1 uM; assay type: ADME, cell-based; details: hepatocytes
# [19] = biological target: Voltage-gated inwardly rectifying potassium channel KCNH2 (Homo sapiens, UniProt Q12809); experiment: Inhibition of human ERG expressed in CHO cells up to 50 uM by patch-clamp electrophysiology; assay type: cell-based
# SW-620 [20] = experiment: Induction of apoptosis in human SW620 cells assessed as early apoptotic cells at 1 uM after 48 hrs by TUNEL assay; assay type: functional
# HeLa [21] = experiment: Inhibition of Aurora kinase in human HeLa cells assessed as complete inhibition of histone H3 phosphorylation at 1.25 uM after 7 hrs by Western blot analysis; assay type: cell-based
# HeLa [22] = experiment: Inhibition of Aurora kinase in human HeLa cells assessed as reduction of histone H3 serine-10 phosphorylation at 1 uM after 7 hrs immunofluorescence microscopy; assay type: cell-based
# SW-620 [23] = experiment: Induction of apoptosis in human SW620 cells assessed as late apoptotic cells at 1 uM after 48 hrs by TUNEL assay; assay type: functional
# SW-620 [24] = experiment: Induction of apoptosis in human SW620 cells assessed as late apoptotic cells at 1 uM after 24 hrs by TUNEL assay; assay type: functional
# NCI-H460 [25] = experiment: Antitumor activity against human NCI-H460 cells xenografted in athymic mouse assessed as delay in tumor growth at 75 mg/kg, po administered QD on day 1 after implantation for 5 days; assay type: functional
# NCI-H460 [26] = experiment: Antitumor activity against human NCI-H460 cells xenografted in athymic mouse assessed as delay in tumor growth at 100 mg/kg, po administered QD on day 1 after implantation for 5 days; assay type: functional
# NCI-H460 [27] = experiment: Antitumor activity against human NCI-H460 cells xenografted in athymic mouse assessed as reduction in tumor volume at 100 mg/kg, po administered QD on day 1 after implantation for 5 days; assay type: functional, organism-based; set-up: dose 100 mg/kg
# NCI-H460 [28] = experiment: Antitumor activity against human NCI-H460 cells xenografted in athymic mouse assessed as reduction in mean tumor volume at 100 mg/kg, po administered QD on day 1 after implantation for 5 days measured on day 9 relative to control; assay type: functional; set-up: scale not given: the % may be the effect or the level left
# Mus musculus [29] = experiment: Toxicity in athymic mouse xenografted with human NCI-H460 cells assessed as body weight loss at 100 mg/kg, po administered QD on day 1 after implantation for 5 days measured on day 8; assay type: organism-based; set-up: dose 100 mg/kg, route oral; details: in vivo, 120 h
# Mus musculus [30] = experiment: Toxicity in athymic mouse xenografted with human NCI-H460 cells assessed as body weight loss at 100 mg/kg, po administered QD on day 1 after implantation for 5 days measured on day 13; assay type: organism-based; set-up: dose 100 mg/kg, route oral; details: in vivo, 120 h
# Mus musculus [31] = experiment: Toxicity in athymic mouse xenografted with human NCI-H460 cells assessed as body weight loss at 75 mg/kg, po administered QD on day 1 after implantation for 5 days measured on day 13; assay type: organism-based; set-up: dose 75 mg/kg, route oral; details: in vivo, 120 h
# [32] = Inhibition of Aurora kinase in human A549 cells assessed as concentration required for half-maximal inhibition of histone H3 serine-10 phosphorylation after 7 hrs immunofluorescence microscopy; assay type: cell-based; details: A549, 7 h
# Aurora kinase B = Aurora kinase B (Homo sapiens, UniProt Q96GD4); details: A549, 0.15 to 5 uM
# Aurora kinase B, sequence (Q96GD4 whole entry): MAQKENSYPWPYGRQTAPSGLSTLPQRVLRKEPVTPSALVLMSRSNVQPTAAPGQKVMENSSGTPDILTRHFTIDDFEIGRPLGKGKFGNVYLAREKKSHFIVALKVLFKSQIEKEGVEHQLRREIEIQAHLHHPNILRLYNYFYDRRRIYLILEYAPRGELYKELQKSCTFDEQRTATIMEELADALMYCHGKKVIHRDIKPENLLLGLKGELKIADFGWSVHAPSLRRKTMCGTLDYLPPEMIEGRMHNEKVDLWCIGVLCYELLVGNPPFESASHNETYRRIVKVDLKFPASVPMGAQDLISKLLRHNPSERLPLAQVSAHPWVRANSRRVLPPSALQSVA
# Description: Inhibition of Aurora B phosphorylation in human A549 cells at 0.15 to 5 uM after 1 hr by Western blot analysis in presence of nocodazole and proteasome inhibitor MG132
# Mitogen-activated protein kinase 14, sequence (Q16539 whole entry): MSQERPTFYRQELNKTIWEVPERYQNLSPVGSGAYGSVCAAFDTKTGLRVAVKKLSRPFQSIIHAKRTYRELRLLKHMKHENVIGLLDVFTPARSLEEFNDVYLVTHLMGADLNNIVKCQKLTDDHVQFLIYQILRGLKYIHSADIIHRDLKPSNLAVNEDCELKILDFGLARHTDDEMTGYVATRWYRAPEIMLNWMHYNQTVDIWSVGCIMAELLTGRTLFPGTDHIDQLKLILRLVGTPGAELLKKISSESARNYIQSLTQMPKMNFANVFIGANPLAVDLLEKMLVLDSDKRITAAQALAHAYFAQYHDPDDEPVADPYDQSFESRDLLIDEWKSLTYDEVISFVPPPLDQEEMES
# Cytochrome P450 2C9, sequence (P11712 whole entry): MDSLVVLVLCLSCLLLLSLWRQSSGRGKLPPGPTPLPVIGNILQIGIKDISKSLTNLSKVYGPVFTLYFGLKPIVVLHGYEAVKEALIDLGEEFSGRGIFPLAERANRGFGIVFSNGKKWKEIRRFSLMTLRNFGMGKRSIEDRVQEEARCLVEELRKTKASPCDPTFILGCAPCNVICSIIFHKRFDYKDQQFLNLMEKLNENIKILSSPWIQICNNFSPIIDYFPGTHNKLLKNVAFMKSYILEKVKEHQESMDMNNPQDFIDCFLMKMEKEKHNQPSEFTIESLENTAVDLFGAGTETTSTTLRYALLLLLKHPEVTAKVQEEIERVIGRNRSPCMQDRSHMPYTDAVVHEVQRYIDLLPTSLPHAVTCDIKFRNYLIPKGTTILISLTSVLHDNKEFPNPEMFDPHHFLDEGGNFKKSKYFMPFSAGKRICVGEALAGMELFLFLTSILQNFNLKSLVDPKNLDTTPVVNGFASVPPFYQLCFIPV
# Cytochrome P450 3A4, sequence (P08684 whole entry): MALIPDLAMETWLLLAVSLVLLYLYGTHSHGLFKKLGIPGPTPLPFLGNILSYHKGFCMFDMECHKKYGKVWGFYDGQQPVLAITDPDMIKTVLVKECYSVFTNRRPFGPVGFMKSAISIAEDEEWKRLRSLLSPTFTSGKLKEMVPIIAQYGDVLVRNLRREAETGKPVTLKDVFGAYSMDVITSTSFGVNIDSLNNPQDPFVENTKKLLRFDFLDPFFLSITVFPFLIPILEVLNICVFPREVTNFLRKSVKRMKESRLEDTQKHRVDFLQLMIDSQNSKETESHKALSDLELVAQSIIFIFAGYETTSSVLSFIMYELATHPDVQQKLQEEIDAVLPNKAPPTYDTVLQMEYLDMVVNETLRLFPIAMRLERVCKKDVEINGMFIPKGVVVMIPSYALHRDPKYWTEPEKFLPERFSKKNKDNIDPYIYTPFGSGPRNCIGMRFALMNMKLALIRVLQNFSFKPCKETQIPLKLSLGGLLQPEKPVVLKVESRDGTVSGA
# Cytochrome P450 2C19, sequence (P33261 whole entry): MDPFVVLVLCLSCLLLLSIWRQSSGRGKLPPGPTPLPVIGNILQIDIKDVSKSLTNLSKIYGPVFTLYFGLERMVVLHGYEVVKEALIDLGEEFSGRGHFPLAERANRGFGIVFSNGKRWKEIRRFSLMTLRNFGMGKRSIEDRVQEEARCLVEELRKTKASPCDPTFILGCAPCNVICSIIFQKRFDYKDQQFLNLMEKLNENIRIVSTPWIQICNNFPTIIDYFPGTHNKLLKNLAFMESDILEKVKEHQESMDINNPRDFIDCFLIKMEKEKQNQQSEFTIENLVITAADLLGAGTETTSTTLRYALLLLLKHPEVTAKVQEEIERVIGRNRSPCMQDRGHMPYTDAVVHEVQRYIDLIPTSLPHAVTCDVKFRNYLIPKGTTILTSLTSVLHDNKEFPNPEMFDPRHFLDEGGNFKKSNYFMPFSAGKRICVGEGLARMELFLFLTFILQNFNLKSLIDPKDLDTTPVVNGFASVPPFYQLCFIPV
# Voltage-gated inwardly rectifying potassium channel KCNH2, sequence (Q12809 whole entry): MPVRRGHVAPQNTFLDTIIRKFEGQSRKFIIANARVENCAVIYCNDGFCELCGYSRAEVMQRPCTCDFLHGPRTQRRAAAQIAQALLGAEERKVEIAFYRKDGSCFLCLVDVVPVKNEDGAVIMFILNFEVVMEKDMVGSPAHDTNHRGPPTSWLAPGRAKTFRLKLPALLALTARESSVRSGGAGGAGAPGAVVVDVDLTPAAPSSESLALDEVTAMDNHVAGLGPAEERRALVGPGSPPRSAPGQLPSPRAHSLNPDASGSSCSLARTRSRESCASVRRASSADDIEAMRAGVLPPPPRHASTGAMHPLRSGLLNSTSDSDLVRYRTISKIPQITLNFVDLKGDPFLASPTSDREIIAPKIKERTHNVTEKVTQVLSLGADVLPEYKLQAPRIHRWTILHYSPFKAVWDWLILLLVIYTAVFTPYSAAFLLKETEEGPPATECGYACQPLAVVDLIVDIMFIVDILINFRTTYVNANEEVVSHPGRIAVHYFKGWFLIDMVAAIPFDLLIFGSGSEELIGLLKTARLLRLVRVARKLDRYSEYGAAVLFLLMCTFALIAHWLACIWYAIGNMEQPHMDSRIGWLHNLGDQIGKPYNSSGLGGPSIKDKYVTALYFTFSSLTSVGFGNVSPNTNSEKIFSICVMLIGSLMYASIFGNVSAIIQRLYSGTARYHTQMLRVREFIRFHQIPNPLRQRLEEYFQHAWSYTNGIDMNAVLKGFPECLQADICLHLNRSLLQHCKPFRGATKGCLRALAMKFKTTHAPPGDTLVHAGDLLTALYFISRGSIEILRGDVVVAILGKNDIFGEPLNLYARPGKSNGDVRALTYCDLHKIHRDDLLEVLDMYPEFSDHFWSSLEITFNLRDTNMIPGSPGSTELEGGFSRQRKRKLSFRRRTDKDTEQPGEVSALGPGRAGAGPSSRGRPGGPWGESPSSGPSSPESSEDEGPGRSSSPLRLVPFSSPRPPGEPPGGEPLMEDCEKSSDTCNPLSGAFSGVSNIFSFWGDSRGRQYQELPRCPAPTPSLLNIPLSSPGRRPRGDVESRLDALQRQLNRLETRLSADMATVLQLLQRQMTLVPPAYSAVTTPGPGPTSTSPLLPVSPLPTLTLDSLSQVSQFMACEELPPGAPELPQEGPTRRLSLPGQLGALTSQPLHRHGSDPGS
# Cytochrome P450 2D6, sequence (P10635 whole entry): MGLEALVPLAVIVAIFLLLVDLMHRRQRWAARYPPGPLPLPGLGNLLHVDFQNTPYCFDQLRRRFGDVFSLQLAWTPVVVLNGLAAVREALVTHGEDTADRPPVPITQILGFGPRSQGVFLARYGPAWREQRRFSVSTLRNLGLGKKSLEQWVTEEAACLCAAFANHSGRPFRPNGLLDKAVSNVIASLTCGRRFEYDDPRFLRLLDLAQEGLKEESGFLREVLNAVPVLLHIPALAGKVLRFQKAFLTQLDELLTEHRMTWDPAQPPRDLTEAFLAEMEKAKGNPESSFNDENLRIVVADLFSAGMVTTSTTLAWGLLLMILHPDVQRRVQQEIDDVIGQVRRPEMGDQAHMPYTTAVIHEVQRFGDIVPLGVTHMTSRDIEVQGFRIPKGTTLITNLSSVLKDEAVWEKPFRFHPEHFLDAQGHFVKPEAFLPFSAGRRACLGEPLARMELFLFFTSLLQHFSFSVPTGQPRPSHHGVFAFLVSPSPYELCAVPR
structure (smiles),measurement,setting,value
Cc1nc(N)sc1-c1ccnc(Nc2ccc(N3CCOCC3)cc2)n1 [CYC-116],IC50,A2780,170 nM
same,IC50,MIA PaCa-2,278 nM
same,Ki,[1],> 10000 nM
same,Ki,[2],> 10000 nM
same,Ki,[3],> 10000 nM
same,Ki,[4],> 10000 nM
same,IC50,HeLa [5],590 nM
same,IC50,COLO 205,241 nM
same,IC50,HCT-116,340 nM
same,IC50,MV4-11,34 nM
same,IC50,HL-60,372 nM
same,IC50,NCI-H460 [6],681 nM
same,IC50,[7],90 nM
same,Activity,U2OS [8],inactive
same,inhibition,U2OS [9],Active
same,Activity,A549 [10],Active
same,Activity,A549 [11],Active
same,logD,[12],2.74
same,pKa,[13],4.4
same,solubility kinetic,[14],10.5 µM
same,Papp,[15],47 ×10⁻⁶ cm/s
same,clearance,Liver microsomes,42.3 µL/min/mg
same,Vd/F,[16],8.5 L/kg
same,bioavailability,[17],38%
same,bioavailability,[18],≤ 61%
same,inhibition (INH),Cytochrome P450 2C9,Active
same,inhibition (INH),Cytochrome P450 2C19,Active
same,inhibition (INH),Cytochrome P450 2D6,Active
same,inhibition (INH),Cytochrome P450 3A4,Active
same,half-life at 5 µM,CYP1A2,1.2 h
same,inhibition (INH),Cytochrome P450 1A,Not Active
same,inhibition (INH),[19],Not Active
same,Activity,SW-620 [20],64.8%
same,inhibition,HeLa [21],Active
same,inhibition,HeLa [22],Active
same,Activity,SW-620 [23],34.7%
same,Activity,SW-620 [24],9.3%
same,Activity,NCI-H460 [25],2.3 days
same,Activity,NCI-H460 [26],5.8 days
same,Activity,NCI-H460 [27],Active
same,Activity,NCI-H460 [28],19%
same,Activity,Mus musculus [29],Toxic
same,Activity,Mus musculus [30],Non-toxic
same,Activity,Mus musculus [31],Non-toxic
same,IC50,[32],480 nM
same,inhibition,Aurora kinase B,Active
